{"source": "patent US9102648B1", "about": "“Bioavailable diacylhydrazine ligands for modulating the expression of exogenous genes via an ecdysone receptor complex” (Intrexon Corporation, priority 2003, dated 2015)", "test_system": "mutated ecdysone receptor-based gene switch", "assay": "In vivo SEAP induction, ligand by IP injection", "set-up": "species or system C57BL/6 mouse", "conditions": "mouse serum", "summary_of_the_method": "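Gene switch plasmids (receptor under CMV promoter) electroporated into quadriceps of C57BL/6 mice; 3 days later ligand given IP at 2.6 μmol or 26 nmol in 50 μL DMSO per mouse. Serum SEAP measured by chemiluminescence 2-11 days after dosing, averaged over four animals, expressed as % of GS™-E ligand induction.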", "data": [{"smiles": "CCc1ccc(C(=O)NN(C(=O)c2cc(C)cc(C)c2)C(C)C(C)(C)C)cc1", "note": "(stereo not drawn) [RG-103451]", "values": [{"measurement": "Secreted Alkaline Phosphatase (percentage of GS ™-E ligand induction) Day 2", "setting": "IP 2.6 μmol ligand 3 days after electroporation, day 2 after ligand", "value": "76 percentage of GS ™-E ligand induction"}, {"measurement": "Secreted Alkaline Phosphatase (percentage of GS ™-E ligand induction) Day 3", "setting": "IP 2.6 μmol ligand, day 3 after ligand", "value": "73 percentage of GS ™-E ligand induction"}, {"measurement": "Secreted Alkaline Phosphatase (percentage of GS ™-E ligand induction) Day 11", "setting": "IP 2.6 μmol ligand, day 11 after ligand", "value": "371 percentage of GS ™-E ligand induction"}]}]}
